Results as given in patent US20230219906A1, “MACROCYCLIC-2-AMINO-3-FLUORO-BUT-3-ENAMIDES AS INHIBITORS OF MCL-1” (Janssen Pharmaceutica NV, priority 2020, published 2023).

How the values were obtained:
[1] = molecular target: Myeloid Cell Leukemia 1(Mcl-1) (Homo sapiens, UniProt Q07820); assay: Terbium labeled Mcl-1 HTRF binding assay with Cy5-labeled BIM BH3 peptide; settings: displacement of Cy5 Bim BH3 peptide; Ki=IC50/(1+[L]/Kd), [L]=8 nM, Kd=10 nM; 60 minutes at room temperature; read-out: Tb-MCL1 Ki
Myeloid Cell Leukemia 1(Mcl-1), sequence (Q07820 whole entry): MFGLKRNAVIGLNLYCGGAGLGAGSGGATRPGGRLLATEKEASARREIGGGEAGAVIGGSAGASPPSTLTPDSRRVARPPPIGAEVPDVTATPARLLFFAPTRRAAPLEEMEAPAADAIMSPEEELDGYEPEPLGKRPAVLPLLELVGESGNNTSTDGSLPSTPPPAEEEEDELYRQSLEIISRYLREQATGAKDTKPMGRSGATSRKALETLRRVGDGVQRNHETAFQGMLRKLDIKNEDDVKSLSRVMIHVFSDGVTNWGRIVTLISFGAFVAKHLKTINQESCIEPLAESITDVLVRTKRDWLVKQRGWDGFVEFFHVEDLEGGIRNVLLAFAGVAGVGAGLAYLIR
Protocol: Terbium labeled Myeloid Cell Leukemia 1(Mcl-1) homogeneous time-resolved fluorescence (HTRF) binding assay utilizing the BIM BH3 peptide (H2N—(C/Cy5Mal) WIAQELRRIGDEFN-OH) as the binding partner for Mcl-1.
This assay evaluated inhibition of the BH3 domain: Mcl-1 interaction by measuring the displacement of Cy5-labeled BIM BH3 peptide (H2N—(C/Cy5Mal) WIAQELRRIGDEFN-OH) in the HTRF assay format.
The following assay and stock buffers were prepared for use in the assay: (a) Stock buffer: 10 mM Tris-HCl, pH=7.5+150 mM NaCl, filtered, sterilized, and stored at 4° C.; and (b) 1X assay buffer, where the following ingredients were added fresh to stock buffer: 2 mM dithiothreitol (DTT), 0.0025% Tween-20, 0.1 mg/mL bovine serum albumin (BSA). The 1X Tb-Mcl-1+Cy5 Bim peptide solution was prepared by diluting the protein stock solution using the 1X assay buffer (b) to 25 pM Tb-Mcl-1 and 8 nM Cy5 Bim peptide.
Using the Acoustic ECHO, 100 nL of 100x test compound(s) were dispensed into individual wells of a white 384-well Perkin Elmer Proxiplate, for a final compound concentration of 1× and final DMSO concentration of 1%. Inhibitor control and neutral control (NC, 100 nL of 100% DMSO) were stamped into columns 23 and 24 of assay plate, respectively. Into each well of the plate was then dispensed 10 μL of the 1X Tb-Mcl-1+Cy5 Bim peptide solution. The plate was centrifuged with a cover plate at 1000 rpm for 1 minute, then incubated for 60 minutes at room temperature with plates covered.
The TR-FRET signal was read on an BMG PHERAStar FSX MicroPlate Reader at room temperature using the HTRF optic module (HTRF: excitation: 337 nm, light source: laser, emission A: 665 nm, emission B: 620 nm, integration start: 60 μs, integration time: […]).
The BMG PHERAStar FSX MicroPlate Reader was used to measure fluorescence intensity at two emission wavelengths—665 nm and 620 nm—and report relative fluorescence units (RFU) for both emissions, as well as a ratio of the emissions (665 nm/620 nm)*10,000. The RFU values were normalized to percent inhibition as follows:
% inhibition=(((NC−IC)−(compound−IC))/(NC−IC))*100
where IC (inhibitor control, low signal)= mean signal of 1X Tb-MCl-1+Cy5 Bim peptide+inhibitor control or 100% inhibition of Mcl-1; NC (neutral control, high signal)= mean signal 1X Tb-MCl-1+Cy5 Bim peptide with DMSO only or 0% inhibition An 11-point dose response curve was generated to determine IC50 values (using GenData) based on the following equation:
Y=Bottom+(Top−Bottom)/(1+10∧((log IC50−X)*HillSlope))
where Y=% inhibition in the presence of X inhibitor concentration; Top=100% inhibition derived from the IC (mean signal of Mcl-1+inhibitor control); Bottom=0% inhibition derived from the NC (mean signal of Mcl-1+DMSO); Hillslope=Hill coefficient; and IC50=concentration of compound with 50% inhibition in relation to top/neutral control (NC).
In this assay [L]=8 nM and Kd=10 nM

[2] = system: MOLP-8 human multiple myeloma cell line; assay: Caspase-Glo 3/7 apoptosis induction assay in MOLP-8 cells; assay type: cell-based; settings: Homo sapiens, MOLP-8, 2 h, caspase-3/7 activity, 2 hours at 37° C.; averaged over all runs on all batches; read-out: MOLP8 AC50
Excerpt: MCL-1 is a regulator of apoptosis and is highly over-expressed in tumor cells that escape cell death. The assay evaluates the cellular potency of small-molecule compounds targeting regulators of the apoptosis pathway, primarily MCL-1, Bfl-1, Bcl-2, and other proteins of the Bcl-2 family. Protein-protein inhibitors disrupting the interaction of anti-apoptotic regulators with BH3-domain proteins initiate apoptosis.
The Caspase-Glo® 3/7 Assay is a luminescent assay that measures caspase-3 and −7 activities in purified enzyme preparations or cultures of adherent or suspension cells. The assay provides a proluminescent caspase-3/7 substrate, which contains the tetrapeptide sequence DEVD. This substrate is cleaved to release aminoluciferin, a substrate of luciferase used in the production of light. Addition of the single Caspase-Glo® 3/7 Reagent in an “add-mix-measure” format results in cell lysis, followed by caspase cleavage of the substrate and generation of a “glow-type” luminescent signal.
This assay uses the MOLP-8 human multiple myeloma cell line, which is sensitive to MCL-1 inhibition.
Cell cultures were maintained between 0.2 and 2.0×10^6 cells/mL. The cells were harvested by collection in 50 mL conical tubes. The cells were then pelleted at 500 g for 5 mins before removing supernatant and resuspension in fresh pre-warmed culture medium. The cells were counted and diluted as needed.
The assay reagent was prepared by transferring the buffer solution to the substrate vial and mixing. The solution may be stored for up to 1 week at 4° C. with negligible loss of signal.
Compounds were delivered in assay-ready plates (Proxiplate) and stored at −20° C. Assays always include 1 reference compound plate containing reference compounds. The plates were spotted with 40 nL of compounds (0.5% DMSO final in cells; serial dilution; […] highest conc. 1/3 dilution, 10 doses, duplicates). The compounds were used at room temperature and 4 μL of pre-warmed media was added to all wells except column 2 and 23. The negative control was prepared by adding 1% DMSO in media. The positive control was prepared by adding the appropriate positive control compound in final concentration of […] in media. The plate was prepared by adding 4 μL negative control to column 23, 4 μL positive control to column 2 and 4 μL cell suspension to all wells in the plate. The plate with cells was then incubated at 37° C. for 2 hours. The assay signal reagent is the Caspase-Glo solution described above, and 8 μL was added to all wells. The plates were then sealed and measured after 30 minutes.
The activity of a test compound was calculated as percent change in apoptosis induction as follows:
% Effect (AC50)=100−(sample-LC)/(HC-LC)*100
% Control=(sample/HC)*100
% Control min=(sample-LC)/(HC-LC)*100

Compound | Ki [1] | AC50 [2]
C[C@@H]1[C@@H](C)C/C=C(\F)[C@H](C(=O)N2CC3(CSC3)C2)N2CCC[C@H]2CN2C[C@@]3(CCCc4cc(Cl)ccc43)COc3ccc(cc32)C(=O)NS1(=O)=O [Compound 15] | 0.162 nM | 435 nM
C[C@@H]1[C@@H](C)C/C=C(\F)[C@H](C(=O)N2CC(C(F)(F)F)C2)N2CCC[C@H]2CN2C[C@@]3(CCCc4cc(Cl)ccc43)COc3ccc(cc32)C(=O)NS1(=O)=O [Compound 36] | 0.325 nM | 399 nM
C[C@@H]1[C@@H](C)C/C=C(\F)[C@H](C(=O)N(C)CCOc2cncnc2)N2CCC[C@H]2CN2C[C@@]3(CCCc4cc(Cl)ccc43)COc3ccc(cc32)C(=O)NS1(=O)=O [Compound 41] | 0.034 nM | 99.1 nM
COCCCN(C)C(=O)[C@H]1/C(F)=C/C[C@H](C)[C@@H](C)S(=O)(=O)NC(=O)c2ccc3c(c2)N(C[C@@H]2CCCN21)C[C@@]1(CCCc2cc(Cl)ccc21)CO3 (single isomer, unassigned) [Compound 51] | 0.04 nM | 78.3 nM
C[C@@H]1[C@@H](C)C/C=C(\F)[C@H](C(=O)N2CCCC3(CC3)C2)N2CCC[C@H]2CN2C[C@@]3(CCCc4cc(Cl)ccc43)COc3ccc(cc32)C(=O)NS1(=O)=O (single isomer, unassigned) [Compound 16] | 0.446 nM | 446 nM
COCCN(CCOC)C(=O)[C@H]1/C(F)=C/C[C@H](C)CS(=O)(=O)NC(=O)c2ccc3c(c2)N(C[C@@H]2CCCN21)C[C@@]1(CCCc2cc(Cl)ccc21)CO3 [Compound 88] | 0.029 nM | 116 nM
C[C@@H]1[C@@H](C)C/C=C(\F)[C@H](C(=O)N2CCOCC2)N2CCC[C@H]2CN2C[C@@]3(CCCc4cc(Cl)ccc43)COc3ccc(cc32)C(=O)NS1(=O)=O [Compound 8] | 0.074 nM | 141 nM
C[C@@H]1CN(C(=O)[C@H]2/C(F)=C/C[C@H](C)[C@@H](C)S(=O)(=O)NC(=O)c3ccc4c(c3)N(C[C@@H]3CCCN32)C[C@@]2(CCCc3cc(Cl)ccc32)CO4)CCO1 [Compound 4] | 0.084 nM | 71.3 nM
C[C@@H]1[C@@H](C)C/C=C(\F)[C@H](C(=O)N(C)c2ccccc2)N2CCC[C@H]2CN2C[C@@]3(CCCc4cc(Cl)ccc43)COc3ccc(cc32)C(=O)NS1(=O)=O [Compound 28] | 0.465 nM | 302 nM
C[C@@H]1[C@@H](C)C/C=C(\F)[C@H](C(=O)N(C)CCN2CC(F)(F)C2)N2CCC[C@H]2CN2C[C@@]3(CCCc4cc(Cl)ccc43)COc3ccc(cc32)C(=O)NS1(=O)=O [Compound 87] | 0.071 nM | 84.8 nM
COCCN1CCN(C(=O)[C@H]2/C(F)=C/C[C@H](C)[C@@H](C)S(=O)(=O)NC(=O)c3ccc4c(c3)N(C[C@@H]3CCCN32)C[C@@]2(CCCc3cc(Cl)ccc32)CO4)CC1 [Compound 38] | 0.051 nM | 187 nM
CC(C)N(C)C(=O)[C@H]1/C(F)=C/C[C@H](C)[C@@H](C)S(=O)(=O)NC(=O)c2ccc3c(c2)N(C[C@@H]2CCCN21)C[C@@]1(CCCc2cc(Cl)ccc21)CO3 [Compound 31] | 0.105 nM | 238 nM
C[C@@H]1[C@@H](C)C/C=C(\F)[C@@H](C(=O)N2C[C@H]3C[C@@H]2CO3)N2CCC[C@H]2CN2C[C@@]3(CCCc4cc(Cl)ccc43)COc3ccc(cc32)C(=O)NS1(=O)=O [Compound 10] | 0.227 nM | 285 nM
C[C@@H]1[C@@H](C)C/C=C(\F)[C@H](C(=O)N(C)CCCN2CCOCC2)N2CCC[C@H]2CN2C[C@@]3(CCCc4cc(Cl)ccc43)COc3ccc(cc32)C(=O)NS1(=O)=O [Compound 5] | 0.026 nM | 111 nM
C[C@@H]1[C@@H](C)C/C=C(\F)[C@@H](C(=O)N(C)CCN2CCOCC2)N2CCC[C@H]2CN2C[C@@]3(CCCc4cc(Cl)ccc43)COc3ccc(cc32)C(=O)NS1(=O)=O (single isomer, unassigned) [Compound 33] | 0.195 nM | 218 nM
